Laboratory results as given in patent US20100203614A1, “FATTY ALDEHYDE REDUCTASE” (Utah State University, priority 2009, published 2010).
Each block holds one molecule with its values, some of them ahead of it.

Assays:
[1] = test system: MBP-FALDR enzyme (maltose binding protein-fatty aldehyde reductase fusion protein); assay: Continuous spectrophotometric assay of fatty aldehyde reductase activity (NADPH oxidation at 340 nm), substrate comparison and kinetics; type: biochemical, Marinobacter aquaeolei VT8
Protocol: For Fatty Aldehyde Continuous Spectrophotometric Assay Development, all assays were performed in a sealed quartz cuvette with a 1 cm path length. The cuvette and solutions were first degassed with argon on a manifold to remove oxygen from the headspace and solutions. Substrates were initially disbursed into a buffer solution containing BSA at a concentration of 0.5 mg/mL by sonication for three ten second intervals using a microtip sonicator (Branson, Danbury, Conn.). The initial assay for pH optimization included a buffer of 100 mM MOPS, 100 mM MES, and 100 mM TAPS. For reduction assays, 75 μL of a 2 mg/mL NADPH stock was added to bring the initial concentration of NADPH in the cuvette to approximately 200 μM, and an approximate absorbance at 340 nm of 1.2 based on the reported extinction coefficient of 6220 M^−1 cm^−1 for NADPH. In all assays, the reaction was run for at least two minutes with the NADPH and substrate present, prior to the addition of any enzyme, to obtain a background oxidation rate of the NADPH. […] A linear fit of the data was then used to establish the rate, and the initial background rate was subtracted, to determine the rate associated with substrate reduction by the MBP-FALDR enzyme.
Having established that the MBP-FALDR would utilize NADPH as a substrate, it was possible to employ a continuous spectrophotometric assay to monitor substrate reduction rates based on the loss of absorbance at 340 nm when NADPH is oxidized to NADP^+. Using this assay, it was possible to establish the pH dependence of the reduction reaction. The rate of reaction was highest at pH 6.3, with a steep increase in activity going from 8.0 to 6.3. The rate at 6.3 was only slightly greater than at 6.5 ([…]). Several factors had to be considered in establishing the optimal pH of the assay. The first was the background oxidation of the NADPH without any MBP-FALDR enzyme present. […] The assays were run under an argon atmosphere to minimize oxidation of the NADPH by O2. A further consideration was the rapid degradation that occurs at the lowest pH values. […] So, for standard assays used here, a pH of 6.5 was selected, where the activity was minimally affected by slight variations in pH. The following discussion is useful in understanding some features and benefits of the various embodiments of the invention:
Utilizing the continuous assay to monitor MBP-FALDR activity, the dependence of rate on substrate concentration was determined for all of the commercially available substrates described above. Each assay was repeated multiple times to confirm the results from each single determination. The results obtained for cis-11-hexadecenal are shown in FIG. 2 and are representative of the results obtained for repeated determinations and for the other substrates. […] In addition, several factors could limit the observed activity. All of the substrates tested have limited solubility in aqueous solutions, and must first be suspended in solution via sonication. Even under these conditions, it is likely that the substrates exist inside micelles. The sonication process utilized here could result in the partial degradation of the substrate over time. Additionally, the suspension of the substrate in solution is only temporary, and the substrate slowly separates from aqueous solution. Due to these limitations, the measured activity is likely to be an underestimate of the actual activity. In the cell, the enzyme and substrate are likely associated with the hydrophobic membranes. […] It was also observed that the MBP-FALDR enzyme was unstable over time, even when stored at 4° C., losing as much as 50% of the activity over a period of a week. Though the purification is quite rapid, it is uncertain how much activity is lost during preparation. […]

MBP-FALDR enzyme [2] = assay: Initial assessment of activity: overnight reaction with NADPH/NADH or NADP+, GC/GC-MS analysis; type: biochemical, Marinobacter aquaeolei VT8
Protocol: For initial assessment of the activity of the purified MBP-FALDR enzyme, 50 μg of purified MBP-FALDR protein was added to a reaction mixture containing 100 mM of Tris buffer at pH 7.9, 100 mM NaCl, 2.4 mM of either NADPH or NADH as a reductant, and decanal, oleic acid, and hexadecanol as possible substrates. The assays were run under an argon atmosphere in septa sealed vials overnight at room temperature with constant gentle mixing. The products of the reactions were then extracted from the buffer by adding an equal volume of hexane and organic layer components were analyzed by gas chromatography equipped with a flame ionization detector (Forte HT5 column (SGE Analytical Science, Austin, Tex.), 30 meter by 0.32 mm inner diameter with 0.5 μm film thickness, with argon as a carrier and a temperature ramp from 60° C. to 360° C. increasing at 10° C. per minute). Samples containing new peaks not present in a control sample were also run through a gas chromatograph equipped with a mass spectrometer (Shimadzu GC-2010 and GCMS-QP2010S) to assign the identity of the product.
Preliminary experiments were run with the MBP-FALDR enzyme to probe possible substrates by mixing either NADH or NADPH with an aldehyde (decanal), alcohol (hexadecanol) or fatty acid (oleic acid) and then looking for changes in concentration of one or more of the potential substrates by GC analysis. The assays were allowed to run overnight in a sealed vial under an atmosphere of argon to maintain the reduced forms of the nicotinamide coenzymes. […] This initial result pointed to the likelihood that the MBP-FALDR enzyme is an NADPH-dependent fatty aldehyde reductase, and further experiments were run to characterize this activity. […] The activity of medium chain alcohol dehydrogenases from a broad range of species show rates of oxidation of alcohols that are 10% of the rates of the reduction of the corresponding aldehyde, so it is possible that this rate is too low to detect.

MBP-FALDR enzyme [3] = assay: Reversibility and cofactor test, spectrophotometric at 340 nm (NADP+, NADH, NAD+); type: biochemical, Marinobacter aquaeolei VT8; conditions: NADH with decanal, NAD+ with decanol, in place of NADPH/NADP+
Text: When the assay was used to check for activity with NADH in place of NADPH, NADH was substituted for NADPH at the same concentration as was used for NADPH, and the assay run as described above. Reactions using either NADP^+ or NAD^+ also used the same concentration, but it followed the increase in absorbance monitored at 340 nm. Once the pH optimum was established for the enzyme, TAPS and MOPS were removed from the buffer, and only MES was used.
To test the possible reversibility of the fatty aldehyde reducatase enzyme comprising the amino acid sequence of SEQ ID NO: 2, the oxidation of a number of alcohols to the corresponding aldehyde using NADP^+ as the oxidant were tested. These tests were performed with the MBP-FALDR enzyme. In these assays, the increase in absorbance at 340 nm was followed. Under no conditions did any reduction of NADP^+ occur in the presence of the fatty alcohols tested. As a control, the alcohol dehydrogenase from Thermoanaerobium brokii was followed with 2-propanol and the same stock of NADP^+ to confirm the integrity of the assay.

MBP-FALDR fusion protein = assay: Inhibition of decanal reduction by MBP-FALDR in the presence of NADPH; type: biochemical, Marinobacter aquaeolei VT8; conditions: at the two concentrations tested
Protocol: For Fatty Aldehyde Continuous Spectrophotometric Assay Development, all assays were performed in a sealed quartz cuvette with a 1 cm path length. The cuvette and solutions were first degassed with argon on a manifold to remove oxygen from the headspace and solutions. Substrates were initially disbursed into a buffer solution containing BSA at a concentration of 0.5 mg/mL by sonication for three ten second intervals using a microtip sonicator (Branson, Danbury, Conn.). The initial assay for pH optimization included a buffer of 100 mM MOPS, 100 mM MES, and 100 mM TAPS. For reduction assays, 75 μL of a 2 mg/mL NADPH stock was added to bring the initial concentration of NADPH in the cuvette to approximately 200 μM, and an approximate absorbance at 340 nm of 1.2 based on the reported extinction coefficient of 6220 M^−1 cm^−1 for NADPH. In all assays, the reaction was run for at least two minutes with the NADPH and substrate present, prior to the addition of any enzyme, to obtain a background oxidation rate of the NADPH.
Finally, the ability of decanol to inhibit reduction of decanal was also tested.
Referring again to Table 2, the inhibition assays were run in 100 mM MES buffer pH 6.5 with 200 μM NADPH, 250 μM decanal and 125 μg of MBP-FALDR fusion protein. All compounds were dissolved in buffer except dipyridyl, which was dissolved in dimethyl sulfoxide (DMSO).

[4] = Decanal reduction after Factor Xa removal of maltose binding protein; type: biochemical; conditions: MBP removed by Factor Xa cleavage
Protocol: Since all the assays were conducted with the MBP-FALDR fusion protein, a principle concern was whether the fusion protein accurately represented the activity of the wild-type fatty aldehyde reducatase enzyme comprising the amino acid sequence of SEQ ID NO: 2. To examine whether the maltose binding protein affected the activity of the wild-type fatty aldehyde reducatase enzyme comprising the amino acid sequence of SEQ ID NO: 2, the maltose binding protein was removed from the N-terminus of the fatty aldehyde reducatase enzyme comprising the amino acid sequence of SEQ ID NO: 2 by Factor Xa cleavage. The near complete cleavage of maltose binding protein was verified by SDS-PAGE. This cleavage is facilitated by the incorporation of a factor Xa cleavage site (Ile-Glu-Gly-Arg) just upstream of the EcoRI site of the pMAL-c2x vector.

activity (substrate reduction rate) ([1]; substrate 100 μg/mL, 160 μg enzyme): 85 nmol/min/mg
Relative Activity (Percent of Decanal) ([1]; substrate 100 μg/mL, 160 μg enzyme, decanal = 85 nmols/min/mg = 100): 100% of Decanal
Km ([1]; substrate of MBP-FALDR, Michaelis-Menten fit, NADPH, FIG. 2 substrate is cis-11-hexadecenal): ~100 µM
substrate conversion by GC (MBP-FALDR enzyme [2]; with NADPH, overnight, argon, room temperature, new peak confirmed as decanol by MS): decrease in the decanal peak
Molecule: CCCCCCCCCC=O [Decanal]
substrate activity in words ([1]; compared with decanal, substrate 100 μg/mL): highest activity of the substrates tested
activity over background with NADH or NAD+ (MBP-FALDR enzyme [3]): no indication of activity over background

reverse reaction: aldehyde production by GC (MBP-FALDR enzyme [2]; with NADP+): no detectable levels
Molecule: CCCCCCCCCCO [decanol]
inhibition of decanal reduction (MBP-FALDR fusion protein): ~45%
activity over background with NADH or NAD+ (MBP-FALDR enzyme [3]): no indication of activity over background

rate of substrate reduction versus MBP-FALDR fusion protein [4]: did not reveal any loss or improvement
B1: cleaved fatty aldehyde reducatase enzyme: fatty aldehyde reductase of SEQ ID NO: 2 freed from MBP by Factor Xa cleavage (protein)
chain: MAIQQVHHADTSSSKVLGQLRGKRVLITGTTGFLGKVVLERLIRAVPDIGAIYLLIRGNKRHPDARSRFLEEIATSSVFDRLREADSEGFDAFLEERIHCVTGEVTEAGFGIGQEDYRKLATELDAVINSAASVNFREELDKALAINTLCLRNIAGMVDLNPKLAVLQVSTCYVNGMNSGQVTESVIKPAGEAVPRSPDGFYEIEELVRLLQDKIEDVQARYSGKVLERKLVDLGIREANRYGWSDTYTFTKWLGEQLLMKALNGRTLTILRPSIIESALEEPAPGWIEGVKVADAIILAYAREKVTLFPGKRSGIIDVIPVDLVANSIILSLAEALGEPGRRRIYQCCSGGGNPISLGEFIDHLMAESKANYAAYDHLFYRQPSKPFLAVNRALFDLVISGVRLPLSLTDRVLKLLGNSRDLKMLRNLDTTQSLATIFGFYTAPDYIFRNDELMALANRMGEVDKGLFPVDARLIDWELYLRKIHLAGLNRYALKERKVYSLKTARQRKKAA
modifications: Marinobacter aquaeolei VT8
